The subject of test [1] is Normal human lung fibroblasts (NHLF). Put plainly: Collagen production in normal human lung fibroblasts (PIP ELISA). Type of test: cell-based. Conditions: 1 and 10 μM; stimulation with 5 ng/mL TGF-β1 and 5-HT; 48 hours. On the procedure: Normal human lung fibroblasts (NHLF, Lonza) were cultured in FGM-2 full medium (+FBS) according to manufacturer's instructions. When confluent, cells were seeded onto 24-well tissue culture plates at 100.000 cells/well (4 wells per condition), until reaching confluence. Once cells were confluent they were serum starved overnight in serum free FGM-2 medium. After 16 hours the serum free medium was removed and cells were treated with (R)-3-(2-hydroxyphenyl)-4-methyl-4,5-dihydro-1H-pyrazole-1-carboximidamide (Example 36, Compound 3) at 1 and 10 μM (vehicle ddH2O). The cells were then stimulated with 5 ng/mL human recombinant TGF-β1 alone or in combination with 1 μM or 10 μM 5-HT. All stimuli were prepared in serum free FGM-2 media (1 mL volume/well). Unstimulated cells received serum free FGM-2 medium alone. After 48 hours the supernatants were collected and stored at −80° C. Collagen production was analyzed in supernatants using procollagen type I C-peptide (PIP) ELISA (Takara Bio # MK1010). Cell viability was tested using a LDH assay (Abcam # Ab102526).
(ELISA stands for enzyme-linked immunosorbent assay.)

Test [2] deals with bleomycin-induced pulmonary fibrosis. Put plainly: Bleomycin-induced pulmonary fibrosis model in mice. Type of test: in vivo, mice (C57BL/6). Conditions: 28 days. On the procedure:
Pulmonary fibrosis was induced in female C57BL/6 mice by intratracheal instillation of bleomycin in saline (50 uL, 0.5 mg/mL). Treatment was initiated at the day of intratracheal instillation and continued to day 28. The mice (8 animals/group) were orally treated twice daily with 25 or 75 mg/kg (R)-3-(2-Hydroxyphenyl)-4-methyl-4,5-dihydro-1H-pyrazole-1-carboximidamide (Example 36, Compound 3) dissolved in ddH2O. Nintedanib at 30 mg/kg in ddH2O, p.o., twice daily, was used as a positive control. Vehicle-treated bleomycin-challenged mice and vehicle-treated non-fibrotic mice served as controls. The animals were sacrificed after 28 days and the fibrotic area of the lung was determined by histological evaluation of Sirius Red-stained sections according to standard protocol. The collagen content of lung tissue was measured using the hydroxyproline collagen assay and the number of myofibroblasts was quantified by staining for α-smooth muscle actin (α-SMA) in paraffin embedded sections.

Test [3] deals with T1, 5-HT2B receptor (Homo sapiens, UniProt P41595).
T1 construct: host or cells: CHO-K1
Put plainly: 5-HT2B receptor agonism, IP-1 accumulation in CHO-K1 cells without prior 5-HT stimulation. Type of test: cell-based. The conditions noted are these: % of IP-1 accumulation induced by 5-HT (1 uM). The method, then:
(§1) 5-HT2B receptor antagonism (performed at Eurofins Panlabs Taiwan, Ltd.) was determined in CHO-K1 cells expressing human receptor protein as inhibition of 5-HT (5 nM) stimulated IP-1 accumulation measured by HTRF quantitation. SB 206553 was used as a standard reference compound. The antagonistic response is expressed as % inhibition of the 5-HT induced effect.
5-HT2B receptor agonism (performed at Eurofins Panlabs Taiwan, Ltd.) was determined in the same model as described above in Ex. 117. without prior stimulation with 5-HT. The agonistic response is expressed as % of the IP-1 accumulation induced by 5-HT (1 uM) stimulation.

Test [4] concerns the target T1, 5-HT2B receptor. Kind of test: 5-HT2B receptor binding, 3H-LSD ligand displacement assay. Conditions: for inhibition at 0.01 µM: 0.01 uM compound; for inhibition at 0.1 µM: 0.1 uM compound; for inhibition at 1 µM: 1 uM compound. On the procedure: 5-HT2B receptor binding (performed at Eurofins Panlabs Taiwan, Ltd.) to human receptor protein expressed in CHO-K1 cells was determined in a ligand displacement assay using ^3H-lysergic acid diethylamide (LSD) as radioligand and ketanserine as a standard reference compound. Data is presented as % displacement of radioligand at indicated compound concentrations, see Table 1 and Table 2.

Test [5] deals with T1, 5-HT2B receptor. Put plainly: 5-HT2B receptor antagonism, inhibition of 5-HT stimulated IP-1 accumulation (HTRF) in CHO-K1 cells. Type of test: cell-based. The conditions noted are these: % inhibition of 5-HT (5 nM) induced effect. The method, then:
as §1

The subject of a further test is TNF-α plasma levels. Kind of test: Reduction of TNF-α plasma levels in LPS-induced acute inflammation in mice. Type of test: in vivo, mice (BALB/c). Conditions: for TNF-α: plasma 90 min after LPS. On the procedure:
Reduction of TNF-α plasma levels in the LPS-induced acute inflammation in mice was used to determine the in vivo anti-inflammatory properties of the compounds.
Mice (BALB/c, female, approx. 20 g, 8 mice/group) were treated with the test compound perorally (10 or 30 mg/kg in water) 30 min prior to LPS treatment (10 ug in saline, intraperitoneally, serotype 055:B5). Alternatively, the test compound was administered subcutaneously in the neck (10 or 30 mg/kg in 10% PEG400 in saline) 15 min prior to LPS treatment. Blood samples were collected 90 min after LPS treatment and plasma TNF-α concentrations were determined in duplicates by ELISA.

This note sets out measurements from US10544103B2, “5-HT2 antagonists” (ANAMAR AB, priority 2015, dated 2020).

The inhibition is the change of the read-out against control, counted positive when it falls.

T1 sequence (P41595 whole entry): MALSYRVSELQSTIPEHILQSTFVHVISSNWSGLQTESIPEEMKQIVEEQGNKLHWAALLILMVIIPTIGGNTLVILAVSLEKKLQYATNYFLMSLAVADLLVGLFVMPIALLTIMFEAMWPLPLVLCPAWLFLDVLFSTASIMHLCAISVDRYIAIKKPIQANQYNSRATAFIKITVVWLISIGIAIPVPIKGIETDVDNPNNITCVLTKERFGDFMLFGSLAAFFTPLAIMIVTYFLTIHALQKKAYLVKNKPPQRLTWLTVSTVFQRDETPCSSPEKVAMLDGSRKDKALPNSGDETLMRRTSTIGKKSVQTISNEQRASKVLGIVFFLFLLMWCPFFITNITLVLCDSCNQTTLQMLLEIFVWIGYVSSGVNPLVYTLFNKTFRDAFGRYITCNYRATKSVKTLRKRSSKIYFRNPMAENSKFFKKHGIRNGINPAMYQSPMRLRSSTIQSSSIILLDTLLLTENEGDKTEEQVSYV

As to `C[C@@H]1CN(C(=N)N)N=C1c1ccccc1O` (single isomer, unassigned) [Example 36], the “Production of collagens (in words)” value in test [1] is on record as “significantly reduced the production of collagens”. For the same molecule, in test [2] (25 mg/kg bid oral), the “Changes in any of the outcomes (fibrotic area, myofibroblasts, hydroxyproline)” value is given as “No statistically significant changes”. Also, in test [2] (75 mg/kg bid oral), the “Fibrotic area (A)” value was “reduced the fibrotic area”, the “Hydroxyproline content (C)” value is “reduced the hydroxyproline content” and the “Myofibroblast differentiation (B)” value is reported as “inhibited myofibroblast differentiation”.

Turning to `C[C@@H]1CN(C(=N)NCc2ccccc2)N=C1c1cccc(Cl)c1O` (single isomer, unassigned) [Example 76, (R)*—N-Benzyl-3-(3-chloro-2-hydroxyphenyl)-4-methyl-4,5-dihydro-1H-pyrazole-1-carboximidamide], the activation at 0.0001 µM at 5-HT2B receptor [3] (0.0001 uM) was found to be 0%. On 5-HT2B receptor [3], the activation at 0.001 µM stood at 1%, the activation at 0.01 µM is 3% and the activation at 0.1 µM was -1%. Also, at 5-HT2B receptor [4] (0.001 uM compound), the inhibition at 0.001 µM is 91%. On 5-HT2B receptor [4], the inhibition at 0.01 µM came out at 101% and the inhibition at 0.1 µM stood at 103%. Also, the inhibition at 0.0001 µM against 5-HT2B receptor [5] (0.0001 uM) came to 79%. On 5-HT2B receptor [5], the inhibition at 0.001 µM was 95%, the inhibition at 0.01 µM stood at 99%, the inhibition at 0.1 µM worked out at 99% and the inhibition at 1 µM was 95%.

For `Cl.N=C(N)N1CCC(c2ccccc2O)=N1` [Example 3, 3-(2-Hydroxyphenyl)-4,5-dihydro-1H-pyrazole-1-carboximidamide], the “TNF-α” value in the test on TNF-α plasma levels (10 mg/kg p.o. (water)) was determined as 5767 pg/mL. In the test with TNF-α plasma levels (30 mg/kg p.o. (water)), the “TNF-α” value was 3992 pg/mL. Further, the “Effect on TNF-α plasma levels (in words)” value with TNF-α plasma levels (p.o. administration) is reported as “dose-dependently reduced TNF-α plasma levels”. At 5-HT2B receptor [3], the activation at 0.01 µM came to 1%, the activation at 0.1 µM was -2%, the activation at 1 µM was -2% and the activation at 10 µM is -7%. Further, at 5-HT2B receptor [5], the inhibition at 0.01 µM came to 14%, the inhibition at 0.1 µM is 38%, the inhibition at 1 µM turned out to be 96% and the inhibition at 10 µM came out at 103%.

`N=C(N)N1CCC(c2cccc3ccccc23)=N1` [Example 9, 3-(Naphthalen-1-yl)-4,5-dihydro-1H-pyrazole-1-carboximidamide]: at 5-HT2B receptor [3], the activation at 0.001 µM was -3%, the activation at 0.01 µM is -8%, the activation at 0.1 µM was -8% and the activation at 1 µM is -13%. The activation at 10 µM at 5-HT2B receptor [3] is -5%. In addition, on 5-HT2B receptor [4], the inhibition at 0.1 µM turned out to be 81% and the inhibition at 1 µM is 99%. Further, on 5-HT2B receptor [5], the inhibition at 0.001 µM amounted to 6%, the inhibition at 0.01 µM was determined as 20%, the inhibition at 0.1 µM came to 76% and the inhibition at 1 µM stood at 103%. In addition, the inhibition at 10 µM on 5-HT2B receptor [5] was found to be 116%.

Take `CC1CN(C(=N)N)N=C1c1ccccc1O.Cl` (centres unmarked) [Example 17, 3-(2-Hydroxyphenyl)-4-methyl-4,5-dihydro-1H-pyrazole-1-carboximidamide]: the “TNF-α” value in the test on TNF-α plasma levels (10 mg/kg p.o. (water)) was 4139 pg/mL. For the same molecule, in the test on TNF-α plasma levels (10 mg/kg s.c. (PEG400/saline)), the “TNF-α” value was determined as 2708 pg/mL. The “TNF-α” value in the test with TNF-α plasma levels (30 mg/kg p.o. (water)) was found to be 4062 pg/mL. Also, the “TNF-α” value in the test on TNF-α plasma levels (30 mg/kg s.c. (PEG400/saline)) stood at 1397 pg/mL. The “Effect on TNF-α plasma levels (in words)” value with TNF-α plasma levels (p.o. administration) was “reduced TNF-α levels”. Further, the “Effect on TNF-α plasma levels (in words)” value in the test on TNF-α plasma levels (subcutaneous (s.c.) administration) was “dose-dependent effects”. Moreover, the “Anti-inflammatory effect compared with the reference compound” value in the test with TNF-α plasma levels (versus RS127545 (so in the source)) is “equal or higher anti-inflammatory effects”. Further, on 5-HT2B receptor [3], the activation at 0.001 µM was 1%, the activation at 0.01 µM is 3%, the activation at 0.1 µM amounted to 7% and the activation at 1 µM was 2%. At 5-HT2B receptor [3], the activation at 10 µM was -2%. In addition, at 5-HT2B receptor [4], the inhibition at 0.01 µM was found to be 54%, the inhibition at 0.1 µM is 91% and the inhibition at 1 µM was 100%. The inhibition at 10 µM on 5-HT2B receptor [4] (10 uM compound) is 100%. Further, on 5-HT2B receptor [5], the inhibition at 0.001 µM amounted to 31%, the inhibition at 0.01 µM is 70%, the inhibition at 0.1 µM was found to be 96% and the inhibition at 1 µM stood at 100%. Further, the inhibition at 10 µM at 5-HT2B receptor [5] worked out at 103%.

As to `N=C(NCc1ccccc1)N1CCC(c2ccccc2Cl)=N1` [Example 21, N-Benzyl-3-(2-chlorophenyl)-4,5-dihydro-1H-pyrazole-1-carboximidamide], at 5-HT2B receptor [3], the activation at 0.001 µM amounted to 3%, the activation at 0.01 µM is -5%, the activation at 0.1 µM was -9% and the activation at 1 µM is -6%. The activation at 10 µM on 5-HT2B receptor [3] was -13%. Moreover, on 5-HT2B receptor [4], the inhibition at 0.1 µM is 59% and the inhibition at 1 µM worked out at 96%. On 5-HT2B receptor [5], the inhibition at 0.001 µM is -6%, the inhibition at 0.01 µM is 10%, the inhibition at 0.1 µM amounted to 41% and the inhibition at 1 µM came out at 104%. On 5-HT2B receptor [5], the inhibition at 10 µM is 113%.

Take `N=C(NCc1ccccc1)N1CCC(c2ccccc2O)=N1` [Example 22, N-Benzyl-3-(2-hydroxyphenyl)-4,5-dihydro-1H-pyrazole-1-carboximidamide]: at 5-HT2B receptor [3], the activation at 0.001 µM is -5%, the activation at 0.01 µM was -10%, the activation at 0.1 µM was -1% and the activation at 1 µM was -3%. In addition, the activation at 10 µM at 5-HT2B receptor [3] was -2%. On 5-HT2B receptor [4], the inhibition at 0.1 µM was found to be 89% and the inhibition at 1 µM came out at 102%. Also, on 5-HT2B receptor [5], the inhibition at 0.001 µM amounted to 14%, the inhibition at 0.01 µM worked out at 28%, the inhibition at 0.1 µM was 88% and the inhibition at 1 µM turned out to be 108%. For the same molecule, the inhibition at 10 µM on 5-HT2B receptor [5] is 110%.

Regarding `COC(=O)c1ccc2c(c1)NC(=O)/C2=C(\Nc1ccc(N(C)C(=O)CN2CCN(C)CC2)cc1)c1ccccc1` [Nintedanib, reference compound], in test [2] (30 mg/kg bid p.o.), the “Fibrotic area (A)” value is on record as “reduced the fibrotic area”, the “Hydroxyproline content (C)” value was “reduced the hydroxyproline content” and the “Myofibroblast differentiation (B)” value is recorded as “inhibited myofibroblast differentiation”.

`CC(C)c1cc(-c2ccc(F)c3ccccc23)nc(N)n1` [RS127445, reference compound]: in the test with TNF-α plasma levels (10 mg/kg s.c. (PEG400/saline)), the “TNF-α” value stood at 3215 pg/mL.
